Laboratory results reported in paper PMC3961306, “Comparison of the Cancer Gene Targeting and Biochemical Selectivities of All Targeted Kinase Inhibitors Approved for Clinical Use” (PLoS ONE, 2014).
Like-named read-outs stand apart in the source and are kept apart here.

System: forty-four human cancer cell lines
Assay: Cell proliferation assay (ATPlite, 72 hours) in the 44 cell line Oncolines panel
Format: cell-based

**Q.** `N.N.[Cl][Pt][Cl]` [cisplatin] was tested. Which IC50 (U-87 MG cell line, ATPlite, 72 hours, read-out: IC50 in cell proliferation assay (table S5 cellpanel data)) did it give?
**A.** > 31.6 µM

**Q.** What about the IC50 (cell line 769-P, read-out: cell panel IC50, 769-P) of the same molecule?
**A.** > 31.6 µM

**Q.** And the IC50 (cell line 786-0, read-out: cell panel IC50, 786-0)?
**A.** 15.1 µM

**Q.** And the IC50 (cell line A375, read-out: cell panel IC50, A375)?
**A.** 13.3 µM

**Q.** What about the IC50 (cell line A-204, read-out: cell panel IC50, A-204) of the same molecule?
**A.** > 31.6 µM

**Q.** What about the IC50 (cell line ACHN, read-out: cell panel IC50, ACHN) of the same molecule?
**A.** 13.5 µM

**Q.** And the IC50 (cell line AN3 CA, read-out: cell panel IC50, AN3 CA)?
**A.** 27.5 µM

**Q.** What about the IC50 (cell line BT-20, read-out: cell panel IC50, BT-20) of the same molecule?
**A.** > 31.6 µM

**Q.** And the IC50 (cell line BxPC-3, read-out: cell panel IC50, BxPC-3)?
**A.** 20.2 µM

**Q.** And the IC50 (cell line C-33 A, read-out: cell panel IC50, C-33 A)?
**A.** 13.9 µM

**Q.** What about the IC50 (cell line CAL 27, read-out: cell panel IC50, CAL 27) of the same molecule?
**A.** 6.14 µM

**Q.** What about the IC50 (cell line CCRF-CEM, read-out: cell panel IC50, CCRF-CEM) of the same molecule?
**A.** 10.5 µM

**Q.** What about the IC50 (cell line DLD-1, read-out: cell panel IC50, DLD-1) of the same molecule?
**A.** > 31.6 µM

**Q.** What about the IC50 (cell line FaDu, read-out: cell panel IC50, FaDu) of the same molecule?
**A.** 27.3 µM

**Q.** And the IC50 (cell line HCT-15, read-out: cell panel IC50, HCT-15)?
**A.** > 31.6 µM

**Q.** What about the IC50 (cell line Hs 578T, read-out: cell panel IC50, Hs 578T) of the same molecule?
**A.** > 31.6 µM

**Q.** And the IC50 (cell line J82, read-out: cell panel IC50, J82)?
**A.** 10.1 µM

**Q.** And the IC50 (cell line Jurkat E6.1, read-out: cell panel IC50, Jurkat E6.1)?
**A.** 4.85 µM

**Q.** And the IC50 (cell line LoVo, read-out: cell panel IC50, LoVo)?
**A.** > 31.6 µM

**Q.** And the IC50 (cell line MG-63, read-out: cell panel IC50, MG-63)?
**A.** 8.57 µM

**Q.** What about the IC50 (cell line MOLT-4, read-out: cell panel IC50, MOLT-4) of the same molecule?
**A.** 8.09 µM

**Q.** What about the IC50 (cell line MeWo, read-out: cell panel IC50, MeWo) of the same molecule?
**A.** > 31.6 µM

**Q.** And the IC50 (cell line NCI-H82, read-out: cell panel IC50, NCI-H82)?
**A.** 19.8 µM

**Q.** What about the IC50 (cell line NCI-H460, read-out: cell panel IC50, NCI-H460) of the same molecule?
**A.** 10 µM

**Q.** And the IC50 (cell line OVCAR-3, read-out: cell panel IC50, OVCAR-3)?
**A.** > 31.6 µM

**Q.** What about the IC50 (cell line PA-1, read-out: cell panel IC50, PA-1) of the same molecule?
**A.** 1.42 µM

**Q.** What about the IC50 (cell line RPMI-7951, read-out: cell panel IC50, RPMI-7951) of the same molecule?
**A.** 10 µM

**Q.** What about the IC50 (cell line SHP-77, read-out: cell panel IC50, SHP-77) of the same molecule?
**A.** > 31.6 µM

**Q.** And the IC50 (cell line SJCRH30, read-out: cell panel IC50, SJCRH30)?
**A.** > 31.6 µM

**Q.** What about the IC50 (cell line SK-N-AS, read-out: cell panel IC50, SK-N-AS) of the same molecule?
**A.** > 31.6 µM

**Q.** And the IC50 (cell line SR, read-out: cell panel IC50, SR)?
**A.** 4.45 µM

**Q.** And the IC50 (cell line SW48, read-out: cell panel IC50, SW48)?
**A.** > 31.6 µM

**Q.** What about the IC50 (cell line SW480, read-out: cell panel IC50, SW480) of the same molecule?
**A.** > 31.6 µM

**Q.** And the IC50 (cell line SW620, read-out: cell panel IC50, SW620)?
**A.** > 31.6 µM

**Q.** What about the IC50 (cell line U-2 OS, read-out: cell panel IC50, U-2 OS) of the same molecule?
**A.** > 31.6 µM

**Q.** And the IC50 (read-out: cell panel IC50, A-172, cell line A-172)?
**A.** > 31.6 µM

**Q.** And the IC50 (read-out: cell panel IC50, A-427, cell line A-427)?
**A.** > 31.6 µM

**Q.** And the IC50 (read-out: cell panel IC50, A-498, cell line A-498)?
**A.** 23.3 µM

**Q.** What about the IC50 (read-out: cell panel IC50, A-549, cell line A-549) of the same molecule?
**A.** 15.6 µM

**Q.** What about the IC50 (read-out: cell panel IC50, AU-565, cell line AU-565) of the same molecule?
**A.** 15.2 µM

**Q.** What about the IC50 (read-out: cell panel IC50, BT-549, cell line BT-549) of the same molecule?
**A.** 9.55 µM

**Q.** And the IC50 (read-out: cell panel IC50, HCT-116, cell line HCT-116)?
**A.** > 31.6 µM

**Q.** What about the IC50 (read-out: cell panel IC50, K-562, cell line K-562) of the same molecule?
**A.** > 31.6 µM

**Q.** And the IC50 (read-out: cell panel IC50, LS 174T, cell line LS 174T)?
**A.** 8.57 µM

**Q.** Which results are given for `O=c1[nH]cc(F)c(=O)[nH]1` [5-fluorouracil]?
**A.** IC50 (Homo sapiens, 769-P, cell line 769-P, read-out: cell panel IC50, 769-P): 4.74 µM; IC50 (Homo sapiens, 786-0, cell line 786-0, read-out: cell panel IC50, 786-0): 2.21 µM; IC50 (Homo sapiens, A 172, read-out: cell panel IC50, A-172, cell line A-172): 0.987 µM; IC50 (Homo sapiens, A204, cell line A-204, read-out: cell panel IC50, A-204): 1.42 µM; IC50 (Homo sapiens, A498, read-out: cell panel IC50, A-498, cell line A-498): 1.7 µM; IC50 (Homo sapiens, A549, read-out: cell panel IC50, A-549, cell line A-549): 1.18 µM; IC50 (Homo sapiens, A-375, cell line A375, read-out: cell panel IC50, A375): 3.66 µM; IC50 (Homo sapiens, A-427, read-out: cell panel IC50, A-427, cell line A-427): 1.82 µM; IC50 (Homo sapiens, ACHN, cell line ACHN, read-out: cell panel IC50, ACHN): 2.45 µM; IC50 (Homo sapiens, AN3-CA, cell line AN3 CA, read-out: cell panel IC50, AN3 CA): 7.34 µM; IC50 (Homo sapiens, AU565, read-out: cell panel IC50, AU-565, cell line AU-565): 1.01 µM; IC50 (Homo sapiens, BT-20, cell line BT-20, read-out: cell panel IC50, BT-20): 6.34 µM; IC50 (Homo sapiens, BT-549, read-out: cell panel IC50, BT-549, cell line BT-549): 1.85 µM; IC50 (Homo sapiens, BXPC-3, cell line BxPC-3, read-out: cell panel IC50, BxPC-3): 5.18 µM; IC50 (Homo sapiens, C-33-A, cell line C-33 A, read-out: cell panel IC50, C-33 A): 4.61 µM; IC50 (Homo sapiens, CAL-27, cell line CAL 27, read-out: cell panel IC50, CAL 27): 4.07 µM; IC50 (Homo sapiens, CCRF-CEM, cell line CCRF-CEM, read-out: cell panel IC50, CCRF-CEM): 15.1 µM; IC50 (Homo sapiens, DLD-1, cell line DLD-1, read-out: cell panel IC50, DLD-1): 1.03 µM; IC50 (Homo sapiens, FaDu, cell line FaDu, read-out: cell panel IC50, FaDu): 1.13 µM; IC50 (Homo sapiens, HCT-15, cell line HCT-15, read-out: cell panel IC50, HCT-15): 1.84 µM; IC50 (Homo sapiens, HCT-116, read-out: cell panel IC50, HCT-116, cell line HCT-116): 1.27 µM; IC50 (Homo sapiens, Hs-578T, cell line Hs 578T, read-out: cell panel IC50, Hs 578T): 7.95 µM; IC50 (Homo sapiens, Jurkat E6.1, cell line Jurkat E6.1, read-out: cell panel IC50, Jurkat E6.1): 3.34 µM; IC50 (Homo sapiens, K562, read-out: cell panel IC50, K-562, cell line K-562): 5.53 µM; IC50 (Homo sapiens, LS174T, read-out: cell panel IC50, LS 174T, cell line LS 174T): 4.8 µM; IC50 (Homo sapiens, LoVo, cell line LoVo, read-out: cell panel IC50, LoVo): 3.2 µM; IC50 (Homo sapiens, MG-63, cell line MG-63, read-out: cell panel IC50, MG-63): 3.03 µM; IC50 (Homo sapiens, MOLT-4, cell line MOLT-4, read-out: cell panel IC50, MOLT-4): 2.07 µM; IC50 (Homo sapiens, MeWo, cell line MeWo, read-out: cell panel IC50, MeWo): 4.28 µM; IC50 (Homo sapiens, NCI-H82, cell line NCI-H82, read-out: cell panel IC50, NCI-H82): 1.92 µM; IC50 (Homo sapiens, NCI-H460, cell line NCI-H460, read-out: cell panel IC50, NCI-H460): 1.59 µM; IC50 (Homo sapiens, OVCAR-3, cell line OVCAR-3, read-out: cell panel IC50, OVCAR-3): 3.46 µM; IC50 (Homo sapiens, RPMI-7951, cell line RPMI-7951, read-out: cell panel IC50, RPMI-7951): 1.22 µM; IC50 (Homo sapiens, SHP77, cell line SHP-77, read-out: cell panel IC50, SHP-77): 22.8 µM; IC50 (Homo sapiens, SK-N-AS, cell line SK-N-AS, read-out: cell panel IC50, SK-N-AS): 2.58 µM; IC50 (Homo sapiens, SW48, cell line SW48, read-out: cell panel IC50, SW48): 1.86 µM; IC50 (Homo sapiens, SW480, cell line SW480, read-out: cell panel IC50, SW480): 1.73 µM; IC50 (Homo sapiens, SW-620, cell line SW620, read-out: cell panel IC50, SW620): 4.2 µM; IC50 (Homo sapiens, U2OS, cell line U-2 OS, read-out: cell panel IC50, U-2 OS): 2.46 µM; IC50 (Homo sapiens, U-87 MG, 72 h, U-87 MG cell line, ATPlite, 72 hours, read-out: IC50 in cell proliferation assay (table S5 cellpanel data)): 2.46 µM; IC50 (Homo sapiens, cell line J82, read-out: cell panel IC50, J82): > 31.6 µM; IC50 (Homo sapiens, cell line PA-1, read-out: cell panel IC50, PA-1): 0.814 µM; IC50 (Homo sapiens, cell line SJCRH30, read-out: cell panel IC50, SJCRH30): 7.21 µM; IC50 (Homo sapiens, cell line SR, read-out: cell panel IC50, SR): 0.546 µM
